Measured values published in patent publication US7566444B2, “Versatile hydrophilic dyes” (Mallinckrodt Inc., priority 2000, dated 2009).

Key:
[1] = test system: pancreatic acinar carcinoma expressing the SST-2 receptor (CA20948); assay: In vivo fluorescence imaging of rat pancreatic acinar carcinoma (CA20948); conditions: for uptake (fluorescence) in tumor at 45 minutes: 45 minutes post injection, rats with CA20948 tumor
From the text: (§1) A non-invasive in vivo fluorescence imaging apparatus was employed to assess the efficacy of contrast agents developed for tumor detection in animal models. A LaserMax Inc. laser diode of nominal wavelength 780 nm and nominal power of 40 mW was used. The detector was a Princeton Instruments model RTE/CCD-1317-K/2 CCD camera with a Rodenstock 10 mm F2 lens (stock #542.032.002.20) attached. An 830 nm interference […] (CVI Laser Corp., part # F10-830-4-2) was mounted in front of the CCD input lens such that only emitted fluorescent light from the contrast agent was imaged. Typically, an image of the animal was taken pre-injection of contrast agent. This image was subsequently subtracted (pixel by pixel) from the post injection images. However, the background subtraction was […] done once the animal had been removed from the sample area and returned at a later time for images taken several hours post injection.
The imaging apparatus and the procedure used are described in Example 12. Rat pancreatic acinar carcinoma expressing the SST-2 receptor (CA20948) was induced by solid implant technique in the left flank area, and palpable masses were detected nine days post implant. The images obtained at 2 and 30 minutes post injection are shown in FIG. 7E-F. FIGS. 7E-F are images of a rat with an induced pancreatic acinar carcinoma (CA20948) expressing the SST-2 receptor imaged at two minutes (FIG. 7E) and 30 minutes (FIG. 7F) post injection.
The imaging apparatus and the procedure used are described in Example 12, except that each animal received 500 μL of a 1.0 mg/mL solution of Cytate 1 solution of 25% dimethylsulfoxide in water.
Rat pancreatic acinar carcinoma expressing the SST-2 receptor (CA20948) were induced by solid implant technique in the left flank area, and palpable masses were detected 24 days post implant. Images were obtained at various times post injection.
(§2) Cytate 1 was evaluated in the CA20948 Lewis rat model. […] At 19 hours post injection the animal was again imaged (FIG. 9B). […] As a control, the organs were imaged again (FIG. 10A) and the image was compared with that of the same tissues in the uninjected rat (FIG. 10B).

[2] = Monitoring of the blood clearance profile of peptide-dye conjugates; format: in vivo; conditions: rat ear; tail vein bolus; 830 nm after excitation at 780 nm
From the text: A laser of appropriate wavelength for excitation of the dye chromophore was directed into one end of a fiber optic bundle and the other end was positioned a few millimeters from the ear of a rat. A second fiber optic bundle was also positioned near the same ear to detect the emitted fluorescent light and the other end was directed into the optics and electronics for data collection. An interference filter (IF) in the collection optics train was used to select emitted fluorescent light of the appropriate wavelength for the dye chromophore.
Sprague-Dawley or Fischer 344 rats were used in these studies. The animals were anesthetized with urethane administered via intraperitoneal injection at a dose of 1.35 g/kg body weight. After the animals had achieved the desired plane of anesthesia, a 21 gauge butterfly with 12″ tubing was placed in the lateral tail vein of each animal and flushed with heparinized saline. The animals were placed onto a heating pad and kept warm throughout the entire study. The lobe of the left ear was affixed to a glass microscope slide to reduce movement and vibration.
Incident laser light delivered from the fiber optic was centered on the affixed ear. Data acquisition was then initiated, and a background reading of fluorescence was obtained prior to administration of the test agent. For Cytates 1 or 2, the peptide-dye conjugate was administered to the animal through a bolus injection, typically 0.5 to 2.0 mL, in the lateral tail vein. This procedure was repeated with several dye-peptide conjugates in normal and tumor-bearing rats. Representative profiles as a method to monitor blood clearance of the peptide-dye conjugate in normal and tumor-bearing animals are shown in FIGS. 12 to 16. The data were analyzed using a standard sigma plot software program for a one-compartment model.

[3] = Imaging of individual organs removed from CA20948 tumor-bearing rat; format: in vivo
Protocol: as §2
Individual organs were removed and imaged.

[4] = test system: Prostatic Carcinoma (Dunning R3327-H); assay: In vivo fluorescence imaging of prostatic carcinoma (R3327-H) tumors; set-up: species or system rat
From the text: as §1
The imaging apparatus and the procedure used are described as in Example 12. Prostate tumors (Dunning R3327-H) were induced in young male Copenhagen rats in the left flank area from a solid implant. These tumors grow very slowly and palpable masses were present 4-5 months post implant. FIGS. 7C-D are images of a rat with an induced prostatic carcinoma tumor (R3327-H) imaged at two minutes (FIG. 7C) and 30 minutes (FIG. 7D) post injection.

[5] = test system: Pancreatic Ductal Adenocarcinoma (DSL 6A); assay: In vivo fluorescence imaging of pancreatic ductal adenocarcinoma (DSL 6A) tumors; set-up: species or system rat
From the text: as §1
DSL 6A tumors were induced in male Lewis rats in the left flank area by the introduction of material from a solid (donor) implant, and the tumors were palpable in approximately 14 days. The animals were anesthetized with xylazine:ketamine:acepromazine, 1.5:1.5:0.5 at 0.8 mL/kg via intramuscular injection. The area of the tumor (left flank) was shaved to expose the tumor and the surrounding surface area. […]

## C[C@@H](O)[C@H](NC(=O)[C@@H]1CSSC[C@H](NC(=O)[C@@H](Cc2ccccc2)NC(=O)CCN2C(=CC=CC=CC=CC3=[N+](CCC(=O)O)c4ccc5ccccc5c4C3(C)C)C(C)(C)c3c2ccc2ccccc32)C(=O)N[C@@H](Cc2ccc(O)cc2)C(=O)N[C@H](Cc2c[nH]c3ccccc23)C(=O)N[C@@H](CCCCN)C(=O)N[C@@H]([C@@H](C)O)C(=O)N1)C(=O)O [Cytate 1, monoOctreotate-Bisethylcarboxymethylindocyanine dye]
[1]
  uptake (fluorescence) in tumor at 45 minutes: still intense
[1]; 90 minutes post injection, CA20948 Lewis rat model
  localization of dye in the tumor: strong localization
[1]; 19 hours post injection, CA20948 Lewis rat model
  tumor visualization: easily observed
[1]; CA20948 tumor, 500 μL of 1.0 mg/mL in 25% dimethylsulfoxide in water
  time of maximal uptake into the tumor: about five
[1]; CA20948 tumor, post-injection
  persistence of dye fluorescence in the tumor: remained intense in the tumor for several hours
[2]
  blood fluorescence signal after bolus injection (rise): rapidly increased to a peak value
  blood fluorescence signal after peak (clearance from the bloodstream): decayed as a function of time
[3]; removed organ imaged
  uptake in adrenals: High uptake
  uptake in heart: significantly lower uptake
  uptake in liver: significantly lower uptake
  uptake in pancreas: High uptake
  uptake in spleen: significantly lower uptake
[3]; removed tissue imaged
  uptake in muscle: significantly lower uptake
  uptake in tumor tissue: High uptake

## C[C@@H](O)[C@H](NC(=O)[C@@H]1CSSC[C@H](NC(=O)[C@@H](Cc2ccccc2)NC(=O)CCN2C(=CC=CC=CC=CC3=[N+](CCC(=O)N[C@H](Cc4ccccc4)C(=O)N[C@H]4CSSC[C@@H](C(=O)N[C@H](C(=O)O)[C@@H](C)O)NC(=O)[C@H]([C@@H](C)O)NC(=O)[C@H](CCCCN)NC(=O)[C@@H](Cc5c[nH]c6ccccc56)NC(=O)[C@H](Cc5ccc(O)cc5)NC4=O)c4ccc5ccccc5c4C3(C)C)C(C)(C)c3c2ccc2ccccc32)C(=O)N[C@@H](Cc2ccc(O)cc2)C(=O)N[C@H](Cc2c[nH]c3ccccc23)C(=O)N[C@@H](CCCCN)C(=O)N[C@@H]([C@@H](C)O)C(=O)N1)C(=O)O [Cytate 2, bis Octreotate-Bisethylcarboxymethylindocyanine dye]
[2]
  blood fluorescence signal after bolus injection (rise): rapidly increased to a peak value
  blood fluorescence signal after peak (clearance from the bloodstream): decayed as a function of time

## CC1(C)C(/C=C/C=C/C=C/C=C2\N(CCCCS(=O)(=O)O)c3ccc4ccccc4c3C2(C)C)=[N+](CCCCS(=O)(=O)[O-])c2ccc3ccccc3c21 [ICG, indocyanine green, reference compound]
[1]; 30 minutes post-ICG injection vs 2 minutes, CA20948 tumor
  dye intensity in the tumor: considerably diminished and almost absent
[1]
  uptake (fluorescence) in tumor at 45 minutes: mostly cleared
[1]; CA20948 (pancreatic) tumor line, absent after 30 minutes post injection
  perfusion of the agent into the tumor: slight but transient perfusion
[1]; CA20948, compared to the other two tumor lines
  non-specific localization into the tumor line: no non-specific localization
[4]; 30 minutes post-ICG injection vs 2 minutes, R3327-H tumor, male Copenhagen rats
  dye intensity in the tumor: considerably diminished
[4]; Dunning R3327H (prostate) tumor line, CCD camera
  perfusion of the agent into the tumor: slow perfusion of the agent over time into the tumor
[5]; 30 minutes post-ICG injection vs 2 minutes, DSL 6A tumor, male Lewis rats, 500 μL of 0.42 mg/mL in water, tail vein
  dye intensity in the tumor: considerably diminished
[5]; DSL 6/A (pancreatic) tumor line, CCD camera
  perfusion of the agent into the tumor: slow perfusion of the agent over time into the tumor
